In US11873303B2, “Substituted pyrazoles as type II IRAK inhibitors” (Merck Patent GmbH, priority 2018, dated 2024):

Legend:
[1] = biological target: T1, IRAK1 (human purified recombinant enzyme His-TEV-IRAK1 (194-712)) (Homo sapiens, UniProt P51617); assay: IRAK1 enzymatic assay (ADP-Glo luminescence); assay type: biochemical; conditions: human recombinant IRAK1, ATP 1 μM
T1 construct: His-TEV-IRAK1 (194-712); His (N); TEV cleavage site (N)
Experimental: IRAK1 is a human purified recombinant enzyme (His-TEV-IRAK1 (194-712)). In this assay, IRAK1 hydrolysed ATP and autophosphorylated. Measurement of IRAK-1 inhibition was performed in 384-well format based on luminescence assay (ADP-Glo™ Kinase Assay from Promega). Purified human recombinant IRAK1 (0.3 μg/ml) and serial diluted compounds in DMSO (range of concentration from 10 μM to 0.5 nM) or controls (1% DMSO) were incubated for 15 minutes at RT in assay buffer containing 50 mM Hepes pH 7.0, Fatty acid-free BSA 0.1%, Dithiothreitol (DTT) 2 mM, MgCl2 10 mM, EGTA 0.5 mM, Triton X-100 0.01%. The kinase reaction was then initiated by the addition of ATP at a concentration of 1 μM. After 2 hours of incubation at RT, the reaction was stopped and the unconsumed ATP depleted by the addition of ADP-Glo™ Reagent according to supplier instructions. After 40 minutes of incubation at RT, the Kinase Detection Reagent was then added to the assay plate according to supplier instructions. After 20 minutes of incubation at RT, the luminescence signal was measured with a luminometer (PerkinElmer Envision or equivalent reader).

[2] = system: TLR7 induced IL-6 secretion in human mononuclear cells (PBMC's); assay: TLR7 induced IL-6 in human PBMC's; assay type: cell-based; conditions: TLR7 ligand 2 uM overnight, IL-6 AlphaLISA
Experimental: TLR7 Induced IL-6 in Human PBMC's
Human PBMC assay was used as one of the functional assays to monitor the activity of IRAK1 and IRAK4 small molecule inhibitors on TLR7 induced IL-6 secretion in human mononuclear cells (PBMC's). Human PBMCs were prepared from buffy coats (whole blood enriched with leukocytes and platelets) obtained from healthy volunteers used either fresh or frozen were plated in assay media (RPMI+2% P/S/L-glu+10% HI-FBS) and pre-treated with compounds in DMSO/media (range of concentrations from 25 uM to 0.4 nM) or controls (0.25% DMSO) for 30 minutes at 37° C. in assay media. Following pre-treatment with IRAK1 and IRAK4 inhibitors, PBMC's were stimulated with TLR7 specific ligand (2 uM) overnight (16-18 hrs) at 37° C. After incubation supernatant was transferred to 384 well PE AlphaPlate-384 and IL-6 was quantified using Perkin Elmer IL-6 Alpha LISA kit (AL223C). Plates were read on an Envision® plate reader with Alpha Technology®.

[3] = biological target: T2, IRAK4 (human purified recombinant enzyme His-TEV-IRAK4 (1-460)) (Homo sapiens, UniProt Q9NWZ3); assay: IRAK4 enzymatic assay (ADP-Glo luminescence); assay type: biochemical; conditions: human recombinant IRAK4, ATP 2 μM, STK1-biotin peptide
T2 construct: His-TEV-IRAK4 (1-460); His (N); TEV cleavage site (N)
T2 sequence (Q9NWZ3 1-460): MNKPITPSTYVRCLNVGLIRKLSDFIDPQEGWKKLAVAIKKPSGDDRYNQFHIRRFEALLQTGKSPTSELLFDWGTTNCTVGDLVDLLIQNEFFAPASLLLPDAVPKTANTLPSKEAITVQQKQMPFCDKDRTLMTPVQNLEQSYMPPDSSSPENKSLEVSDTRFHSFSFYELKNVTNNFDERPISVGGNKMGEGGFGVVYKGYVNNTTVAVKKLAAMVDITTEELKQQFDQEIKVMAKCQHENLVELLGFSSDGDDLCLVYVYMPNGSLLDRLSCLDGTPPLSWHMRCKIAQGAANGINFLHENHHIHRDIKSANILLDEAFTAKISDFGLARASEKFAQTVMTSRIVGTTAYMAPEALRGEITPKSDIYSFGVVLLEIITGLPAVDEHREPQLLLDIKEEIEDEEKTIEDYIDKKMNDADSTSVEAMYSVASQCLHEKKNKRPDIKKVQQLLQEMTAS
Experimental: IRAK4 is a human purified recombinant enzyme (His-TEV-IRAK4 (1-460)). In this assay, IRAK4 hydrolysed ATP, autophosphorylated and phosphorylated a Serine/Threonine generic peptidic substrate (STK: 61ST1BLC from CisBio International). Measurement of IRAK-4 inhibition was performed in 384-well format based on a luminescence assay (ADP-Glo™ Kinase Assay from Promega). Purified human recombinant IRAK4 (0.3 μg/ml) and serial diluted compounds in DMSO (range of concentration from 10 μM to 0.5 nM) or controls (1% DMSO) were incubated for 15 minutes at RT in assay buffer containing 50 mM Hepes pH 7.0, Fatty acid-free BSA 0.1%, Dithiothreitol (DTT) 2 mM, MgCl2 10 mM, EGTA 0.5 mM, Triton X-100 0.01%, MnCl2 5 mM. The kinase reaction was then initiated by the addition of ATP (2 μM) and the peptidic substrate STK1-biotin peptide (300 nM). After 2 hours of incubation at RT, the reaction was stopped and the unconsumed ATP depleted by the addition of ADP-Glo™ Reagent according to supplier instructions. After 40 minutes of incubation at RT, the Kinase Detection Reagent was then added to the assay plate according to supplier instructions. After 20 minutes of incubation at RT, the luminescence signal was measured with a plate-reading luminometer (PerkinElmer Envision or equivalent reader).

T1 sequence (P51617 194-712): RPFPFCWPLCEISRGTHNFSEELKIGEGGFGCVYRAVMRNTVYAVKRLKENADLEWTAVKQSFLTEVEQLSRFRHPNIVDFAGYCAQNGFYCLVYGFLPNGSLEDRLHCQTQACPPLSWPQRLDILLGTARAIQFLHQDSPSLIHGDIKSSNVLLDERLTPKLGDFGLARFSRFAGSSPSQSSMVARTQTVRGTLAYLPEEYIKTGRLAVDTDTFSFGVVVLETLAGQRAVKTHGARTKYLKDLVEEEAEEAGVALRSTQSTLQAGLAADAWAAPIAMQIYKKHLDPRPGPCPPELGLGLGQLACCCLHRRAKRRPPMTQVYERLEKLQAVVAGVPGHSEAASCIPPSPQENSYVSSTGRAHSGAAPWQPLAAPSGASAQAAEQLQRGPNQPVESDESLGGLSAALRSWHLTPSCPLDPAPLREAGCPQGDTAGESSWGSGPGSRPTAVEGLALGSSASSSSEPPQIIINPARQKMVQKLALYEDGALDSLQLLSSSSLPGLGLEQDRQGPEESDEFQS

| Compound | IC50 [1] [nM] | IC50 [2] [nM] | IC50 [3] [nM] |
| --- | --- | --- | --- |
| CC(C)c1ccc(-n2nc(C(C)(C)C)cc2NC(=O)Nc2ccc(-c3nn(C)c4ncnc(N)c34)cc2)cc1 [Example 1, 1-(4-{4-amino-1-methyl-1H-pyrazolo[3,4-d]pyrimidin-3-yl}phenyl)-3-{3-tert-butyl-1-[4-(propan-2-yl)phenyl]-1H-pyrazol-5-yl}urea] | < 100 | < 100 | 100 to 1000 |
| Cc1ccc(-n2nc(C(C)(C)C)cc2NC(=O)Nc2ccc(-c3nn(C)c4ncnc(N)c34)c(F)c2)cc1 [Example 2, 1-[4-(4-Amino-1-methyl-1H-pyrazolo[3,4-d]pyrimidin-3-yl)-3-fluoro-phenyl]-3-(5-tert-butyl-2-p-tolyl-2H-pyrazol-3-yl)-urea] | < 100 | < 100 | < 100 |
| CC(C)c1ccc(-n2nc(C(C)(C)C)cc2NC(=O)Nc2ccc(-c3nn(C)c4ncnc(N)c34)c(F)c2)cc1 [Example 3, 1-[4-(4-Amino-1-methyl-1H-pyrazolo[3,4-d]pyrimidin-3-yl)-3-fluoro-phenyl]-3-[5-tert-butyl-2-(4-isopropyl-phenyl)-2H-pyrazol-3-yl]-urea] | < 100 | < 100 | 100 to 1000 |
| Cc1ccc(-n2nc(C(C)(C)C)cc2NC(=O)Nc2ccc(-c3nn(C)c4ncnc(N)c34)cc2F)cc1 [Example 4, 1-[4-(4-Amino-1-methyl-1H-pyrazolo[3,4-d]pyrimidin-3-yl)-2-fluoro-phenyl]-3-(5-tert-butyl-2-p-tolyl-2H-pyrazol-3-yl)-urea] | < 100 | < 100 | < 100 |
| Cc1ccc(-n2nc(C(C)(C)C)cc2NC(=O)Nc2ccc(-c3nn(C)c4ncnc(N)c34)cc2Cl)cc1 [Example 5, 1-[4-(4-Amino-1-methyl-1H-pyrazolo[3,4-d]pyrimidin-3-yl)-2-chloro-phenyl]-3-(5-tert-butyl-2-p-tolyl-2H-pyrazol-3-yl)-urea] | < 100 | < 100 | < 100 |
| Cc1ccc(-n2nc(C(C)(C)C)cc2NC(=O)Nc2ccc(-c3csc4ncnc(N)c34)c(F)c2)cc1 [Example 6, 1-[4-(4-Amino-thieno[2,3-d]pyrimidin-5-yl)-3-fluoro-phenyl]-3-(5-tert-butyl-2-p-tolyl-2H-pyrazol-3-yl)-urea] | < 100 | < 100 | 100 to 1000 |
| Cc1ccc(-n2nc(C(C)(C)C)cc2NC(=O)Nc2ccc(-c3csc4ncnc(N)c34)cc2F)cc1 [Example 7, 1-[4-(4-Amino-thieno[2,3-d]pyrimidin-5-yl)-2-fluoro-phenyl]-3-(5-tert-butyl-2-p-tolyl-2H-pyrazol-3-yl)-urea] | < 100 | < 100 | < 100 |
| Cc1ccc(-n2nc(C(C)(C)C)cc2NC(=O)Nc2ccc(-c3nn(C)c4ncnc(N)c34)c(Cl)c2)cc1 [Example 8, 1-[4-(4-Amino-1-methyl-1H-pyrazolo[3,4-d]pyrimidin-3-yl)-3-chloro-phenyl]-3-(5-tert-butyl-2-p-tolyl-2H-pyrazol-3-yl)-urea] | < 100 | < 100 | < 100 |
| CC(C)c1ccc(-n2nc(C(C)(C)C)cc2NC(=O)Nc2ccc(-c3nn(C)c4ncnc(N)c34)cc2F)cc1 [Example 9, 1-(4-{4-amino-1-methyl-1H-pyrazolo[3,4-d]pyrimidin-3-yl}-2-fluorophenyl)-3-{3-tert-butyl-1-[4-(propan-2-yl)phenyl]-1H-pyrazol-5-yl}urea] | < 100 | < 100 | < 100 |
| Cc1ccc(-n2nc(C(C)(C)C)cc2NC(=O)Nc2ccc(-c3csc4ncnc(N)c34)c(Cl)c2)cc1 [Example 10, 1-[4-(4-Amino-thieno[2,3-d]pyrimidin-5-yl)-3-chloro-phenyl]-3-(5-tert-butyl-2-p-tolyl-2H-pyrazol-3-yl)-urea] | < 100 | < 100 | 100 to 1000 |
| Cc1ccc(-n2nc(C(C)(C)C)cc2NC(=O)Nc2ccc(-c3csc4ncnc(N)c34)cc2Cl)cc1 [Example 11, 1-[4-(4-Amino-thieno[2,3-d]pyrimidin-5-yl)-2-chloro-phenyl]-3-(5-tert-butyl-2-p-tolyl-2H-pyrazol-3-yl)-urea] | < 100 | < 100 | 1000 to 5000 |
| Cc1ccc(-n2nc(C(C)(C)C)cc2NC(=O)Nc2ccc(-c3csc4ncnc(N)c34)cc2)cc1 [Example 12, 1-[4-(4-Amino-thieno[2,3-d]pyrimidin-5-yl)-phenyl]-3-(5-tert-butyl-2-p-tolyl-2H-pyrazol-3-yl)-urea] | < 100 | < 100 | 100 to 1000 |
| Cc1ccc(-n2nc(C(F)(F)F)cc2NC(=O)Nc2ccc(-c3nn(C)c4ncnc(N)c34)c(F)c2)cc1 [Example 13, 1-[4-(4-Amino-1-methyl-1H-pyrazolo[3,4-d]pyrimidin-3-yl)-3-fluoro-phenyl]-3-(2-p-tolyl-5-trifluoromethyl-2H-pyrazol-3-yl)-urea] | 100 to 1000 | 100 to 1000 | > 5000 |
| CC(C)c1ccc(-n2nc(C(C)(C)C)cc2NC(=O)Nc2ccc(-c3nn(C)c4ccnc(N)c34)cc2)cc1 [Example 14, 1-[4-(4-Amino-1-methyl-1H-pyrazolo[4,3-c]pyridin-3-yl)-phenyl]-3-[5-tert-butyl-2-(4-isopropyl-phenyl)-2H-pyrazol-3-yl]-urea] | < 100 | < 100 | 100 to 1000 |
| Cc1ccc(-n2nc(C(C)(C)C)cc2NC(=O)NC2CC=C(c3cn(C)c4ncnc(N)c34)CC2)cc1 (stereo not drawn) [Example 25, 1-[4-(4-Amino-7-methyl-7H-pyrrolo[2,3-d]pyrimidin-5-yl)-cyclohex-3-enyl]-3-(5-tert-butyl-2-p-tolyl-2H-pyrazol-3-yl)-urea] | < 100 |  | < 100 |
| Cn1nc(-c2ccc(NC(=O)Nc3cc(C(C)(C)C)nn3-c3ccc(C#N)cc3)c(Cl)c2)c2c(N)ncnc21 [Example 28, 1-(4-{4-amino-1-methyl-1H-pyrazolo[3,4-d]pyrimidin-3-yl}-2-chlorophenyl)-3-[3-tert-butyl-1-(4-cyanophenyl)-1H-pyrazol-5-yl]urea] | < 100 |  | 100 to 1000 |
| Cc1ccc(-n2nc(C(C)(C)C)cc2NC(=O)Nc2ccc(-c3nn(C)c4ncnc(N)c34)cc2Cl)cc1F [Example 29, 1-[4-(4-Amino-1-methyl-1H-pyrazolo[3,4-d]pyrimidin-3-yl)-2-chloro-phenyl]-3-[5-tert-butyl-2-(3-fluoro-4-methyl-phenyl)-2H-pyrazol-3-yl]-urea] | < 100 |  | 100 to 1000 |
